Results published in patent US20250368552A1, “INHIBITION OF BIOFILMS GROWTH IN PROCESS WATERS WITH MICROBIAL INTERACTIVE COMPOSITIONS” (ECOLAB USA INC., priority 2024, published 2025).

What was measured:
[1] = tested on: Cooling Water Bacteria Population 2; experiment: Biofilm inhibition test, 96 well microtiter plate, crystal violet stain (similar to ASTM E2799-12 MBEC assay); format: cell-based, Pseudomonas species in cooling water systems
Source text: (§1) The bacterial species used for the biofilm inhibition testing included: 1) cooling water bacterial population 1=total aerobic bacterial population that was obtained from cooling water samples in cooling water systems and grown on standard nutrient agar for aerobic bacteria, and 2) cooling water bacterial population 2=Pseudomonas species in cooling water systems. Pseudomonas species were collected from cooling water samples from selective media. The collected Pseudomonas population from cooling water systems were stored at −80° C. and re-inoculated into 100 mL fresh test medium (described below), incubated at a rotary shaker at 35° C., […] for 18-24 hours before used as a starter culture.
The concentration range for the testing of these microorganisms for the waters was 10^4-10^8 CFU/ml.
The following Examples utilized a 96-well microtiter plate and aerobic incubation.
The Biofilm inhibition testing utilized a test medium with a final concentration of 16% test medium in the water. […]
(§2) To quantify the biofilm and effect of the chemicals, the minimal biofilm eradication concentration (MBEC) using a method similar to the ASTM method for Testing disinfectant efficacy against Pseudomonas aeruginosa Biofilm using MBEC Assay (E2799-12), Standard Test Method for Testing Disinfectant Efficacy against Pseudomonas aeruginosa Biofilm using MBEC Assay. […]

[2] = tested on: Bact P2 (Cooling Water Bacteria Population 2), planktonic growth; experiment: Planktonic inhibition (minimum inhibition concentration in liquid culture); format: cell-based; conditions: minimum inhibitory concentration
Source text: (§3) Another plate was run according to the same procedures outlined in Examples 1-3. The experiment tested Chemicals including Alkyl Poly Glucoside, QAT Biocide, Chemical B, Chemical A+D for Planktonic inhibition as well as Biofilm Inhibition as reflected in Table 4.
(§4) The results in Table 4 show minimum biofilm inhibition concentrations (ppm) when treating different bacterial populations with each of the chemicals alone.
(§5) Minimum Inhibition Concentration (MIC): at this concentration, bacterial population stopped growth under the above incubation conditions
(§6) OD600 turbidity: bacterial concentration is correlated with the medium turbidity, The planktonic concentration can be calculated using a turbidity to bacterial count concentration model. If OD600 is <0.1, it is considered bacterial counts <10^3 cfu/ml.

[3] = tested on: Bact P1 (Cooling Water Bacteria Population 1), planktonic growth; experiment: as above; format: cell-based
Source text: as §3, §4, §5, §6

[4] = tested on: planktonic bacteria; experiment: Average planktonic bacterial concentration in liquid culture (plate count / OD600 turbidity); format: cell-based; conditions: control 8.7
Source text: (§7) Additional testing was run to show various evaluated concentrations of chemistries including No Treatment (Control), QAT Biocide, Chemical B, and Chemical A+E for assessing biofilm reduction based on average planktonic bacterial concentrations as shown in Table 5.
The following methodology for the bacterial concentration in liquid culture were used:
Plate count: plate the treated bacterial mixture after serial dilutions with required mediums like R2A, Petrifilms etc.
as §6

[5] = tested on: Cooling Water Bacteria Population 1; experiment: Biofilm inhibition test, 96 well microtiter plate, crystal violet stain (similar to ASTM E2799-12 MBEC assay); format: cell-based
Source text: as §1, with “culture. […]” for “culture.”
as §2
The control where there was no chemical treatment present indicated a steady presence of biofilm build up between absorbance 0.5 to 0.6. The biofilm concentrations are correlated to the absorbance at wavelength 580-595 nm (depicted in figures as Obs 580 nm). […]

[6] = tested on: biofilm; experiment: Biofilm quantity on surface by crystal violet staining, biofilm reduction vs control; format: cell-based; conditions: for Avg Biofilm Reduction: (Treatment OD595 - Control OD595)*100/Control OD595, negative = less biofilm
Source text: as §7
The following methodology for the biofilm concentration on surface were used:
Biofilm quantity: biofilm quantity grew on surface can be determined by crystal violate staining, followed by 3 times of washing and then eluting.
Biofilm Reduction from chemical treatment is calculated by the following: (average Treatment OD595-average Control OD595)*100/average Control OD595 where the CV absorbance range used was 580-595 nm. If OD595 was <0.1, it was considered as non-biofilm formation. CV absorbance range 580-595 nm was used in different tests.

[7] = tested on: indigenous microbial populations of cooling water sources; experiment: MIC of hypochlorite (as free chlorine) for biofilm formation in commercial cooling water sources; format: cell-based; conditions: for MIC hypochlorite: hypochlorite alone, as free chlorine
Description: Additional testing was completed to show the benefit of reducing a biocidal dose with the method of preventing biofilms described herein. Various commercial cooling water sources were evaluated for the MIC of hypochlorite (Minimum Inhibition Concentration as free chlorine for biofilm formation) as the biocide dosed with the Chemistry A+Chemistry E. The test conditions and results are shown in Table 6.
Under certain conditions the biocide dosing requirement was reduced by over 90%.

[8] = concentration giving biofilm reduction
[9] = minimum biofilm inhibition concentration

Structure (SMILES): CCCCCCCCCC[N+](C)(C)CCCCCCCCCC.[Cl-] [QATS Biocide, Didecyl Dimethyl Ammonium Chloride]
- Biofilm reduction Bact P2 [1, 8]: 0.8 ppm
- Total Biofilm Inhibition Bact P2 [1, 9]: 1.6 ppm
- Planktonic Inhibition Bact P2 [2]: 1.6 ppm
- Concentration that effectively killed planktonic bacteria ([3]; Table 4, Bact P1 and Bact P2): ≤ 3 ppm
- Planktonic Inhibition Bact P1 ([3]; minimum inhibitory concentration, Bact P1): 3 ppm
- Avg Planktonic Bacterial Conc ([4]; 1.6 ppm): 8.672 Log cfu/ml
- Avg Planktonic Bacterial Conc ([4]; 3.1 ppm): 8.688 Log cfu/ml
- Avg Planktonic Bacterial Conc ([4]; 6.2 ppm): 8.609 Log cfu/ml
- Avg Planktonic Bacterial Conc ([4]; 12.5 ppm): 8.492 Log cfu/ml
- Avg Planktonic Bacterial Conc ([4]; 25.0 ppm): 8.590 Log cfu/ml
- Avg Planktonic Bacterial Conc ([4]; 50.0 ppm): <3.000 Log cfu/ml
- Avg Planktonic Bacterial Conc ([4]; 100.0 ppm): <3.000 Log cfu/ml
- Biofilm Reduction Bact P1 [5, 8]: 0.8 ppm
- Total Biofilm Inhibition Bact P1 [5, 9]: 6 ppm
- Avg Biofilm Reduction ([6]; 1.6 ppm): 49.9%
- Avg Biofilm Reduction ([6]; 3.1 ppm): 54.0%
- Avg Biofilm Reduction ([6]; 6.2 ppm): 108.4%
- Avg Biofilm Reduction ([6]; 12.5 ppm): −3.5%
- Avg Biofilm Reduction ([6]; 25.0 ppm): 34.7%
- Avg Biofilm Reduction ([6]; 50.0 ppm): −89.1%
- Avg Biofilm Reduction ([6]; 100.0 ppm): −12.1%
- Concentration showing both planktonic and biofilm control ([6]; Table 5): greater than 50 ppm

Structure (SMILES): OCl [hypochlorite]
- MIC hypochlorite ([7]; Cooling Water Source 1): 25 ppm
- MIC hypochlorite (ppm) With 6 ppm Chemistry A + Chemistry E ([7]; Cooling Water Source 1): 3.1 ppm
- MIC hypochlorite ([7]; Cooling Water Source 2): 25 ppm
- MIC hypochlorite (ppm) With 6 ppm Chemistry A + Chemistry E ([7]; Cooling Water Source 2): 6.3 ppm
- MIC hypochlorite ([7]; Cooling Water Source 3): 12.5 ppm
- MIC hypochlorite (ppm) With 6 ppm Chemistry A + Chemistry E ([7]; Cooling Water Source 3): 0.8 ppm
- MIC hypochlorite ([7]; Cooling Water Source 4): 25 ppm
- MIC hypochlorite (ppm) With 6 ppm Chemistry A + Chemistry E ([7]; Cooling Water Source 4): 12.5 ppm
